In BindingDB's records for doi:10.1021/acs.jmedchem.0c01754 (Astrazeneca, 2020):

Target: Cyclin-T1/Cyclin-dependent kinase 9 (Homo sapiens, UniProt O60563+P50750)
Assay: Inhibition of recombinant full length human N-terminal GST-fused CDK9 (1 to 372 residues)/His-tagged CyclinT1 (1 to 726 residues) expressed in baculovirus infected insect cells using FITC-X-GSRTPMY-NH2 as substrate preincubated for 10 mins followed by MgCl2 addition and measured after 90 mins in presence of 5 mM ATP by mobility shift assay

Cyclin-T1/Cyclin-dependent kinase 9, sequence (O60563 whole entry, the tested form may be a part): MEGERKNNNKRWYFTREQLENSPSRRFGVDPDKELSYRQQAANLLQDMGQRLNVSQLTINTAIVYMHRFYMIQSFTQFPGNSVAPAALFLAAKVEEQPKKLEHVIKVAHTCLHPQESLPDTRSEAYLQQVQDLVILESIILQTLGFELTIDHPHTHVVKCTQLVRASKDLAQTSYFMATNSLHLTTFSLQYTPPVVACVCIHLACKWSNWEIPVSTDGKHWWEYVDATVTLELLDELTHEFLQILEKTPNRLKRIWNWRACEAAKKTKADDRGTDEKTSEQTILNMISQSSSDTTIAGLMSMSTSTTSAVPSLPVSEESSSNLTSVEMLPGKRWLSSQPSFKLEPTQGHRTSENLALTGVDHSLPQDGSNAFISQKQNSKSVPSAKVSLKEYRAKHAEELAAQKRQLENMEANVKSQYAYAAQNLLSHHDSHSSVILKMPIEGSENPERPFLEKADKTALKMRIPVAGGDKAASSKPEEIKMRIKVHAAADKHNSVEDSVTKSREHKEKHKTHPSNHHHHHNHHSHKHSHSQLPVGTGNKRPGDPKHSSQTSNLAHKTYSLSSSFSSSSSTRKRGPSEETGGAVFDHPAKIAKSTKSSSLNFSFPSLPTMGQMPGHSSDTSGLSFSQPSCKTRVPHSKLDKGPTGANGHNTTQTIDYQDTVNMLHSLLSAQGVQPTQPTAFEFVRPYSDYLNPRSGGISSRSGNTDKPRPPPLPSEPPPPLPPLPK
Cyclin-T1/Cyclin-dependent kinase 9, sequence (P50750 whole entry, the tested form may be a part): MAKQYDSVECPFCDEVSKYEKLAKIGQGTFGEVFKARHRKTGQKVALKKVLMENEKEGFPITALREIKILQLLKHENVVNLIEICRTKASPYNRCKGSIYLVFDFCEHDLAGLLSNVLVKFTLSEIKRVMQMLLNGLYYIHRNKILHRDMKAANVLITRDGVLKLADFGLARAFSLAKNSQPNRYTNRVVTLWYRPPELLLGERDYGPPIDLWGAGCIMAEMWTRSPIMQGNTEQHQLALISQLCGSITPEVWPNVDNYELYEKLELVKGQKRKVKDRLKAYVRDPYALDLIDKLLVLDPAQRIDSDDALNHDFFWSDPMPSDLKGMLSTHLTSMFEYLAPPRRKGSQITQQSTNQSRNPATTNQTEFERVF

| IC50 | Structure (SMILES) |
| --- | --- |
| 350 nM | CC(=O)N[C@@H]1CCC[C@H](C(=O)Nc2cc(-c3cnn4c3NCCC4)c(Cl)cn2)C1 [US10717746, Example 15] |
| 3 nM | CC(=O)N[C@@H]1CC[C@H](C(=O)Nc2cc(-c3cnn4c3CC(C)(C)C4)c(Cl)cn2)C1 [US10717746, Example 48] |
| 23 nM | CC(=O)N[C@@H]1CCC[C@H](C(=O)Nc2cc(-c3cnn4c3CCCCC4)c(Cl)cn2)C1 [US10717746, Example 66] |
| 60 nM | CC(=O)N[C@@H]1CCC[C@H](C(=O)Nc2cc(-c3cnn4c3CCCC4O)c(Cl)cn2)C1 (stereo partly specified) [US10717746, Example 78] |
| 85 nM | CC(=O)N[C@@H]1CCC[C@H](C(=O)Nc2cc(-c3cn[nH]c3CCCCO)c(Cl)cn2)C1 [US10717746, Example 78a] |
| 139 nM | CC(=O)N[C@@H]1CCC[C@H](C(=O)Nc2cc(-c3cn[nH]c3CC(C)(C)CO)c(Cl)cn2)C1 [US10717746, Example 82a] |

Continued, molecule first:

| Structure (SMILES) | IC50 |
| --- | --- |
| CC(=O)N[C@@H]1CCC[C@H](C(=O)Nc2cc(-c3cnn4c3CC(C)(C)C4)c(F)cn2)C1 [US10717746, Example 25] | 4 nM |
| CC1(C)Cc2c(-c3cc(NC(=O)[C@H]4C[C@@H](O)C4)ncc3Cl)cnn2C1 [US10717746, Example 27] | 25 nM |
| CC(=O)N[C@@H]1CCC[C@H](C(=O)Nc2cc(-c3cnn4c3CC(C)(C)C4)c(C#N)cn2)C1 [US10717746, Example 39] | 62 nM |
| CC(=O)N[C@@H]1CCC[C@H](C(=O)Nc2cc(-c3cnn4c3CC(C)(C)CC4)ccn2)C1 [US10717746, Example 44] | 8 nM |
| CC(=O)N[C@@H]1CCC[C@H](C(=O)Nc2cc(-c3cnn4c3CCCC4)c(F)cn2)C1 [US10717746, Example 63] | 51 nM |
